Assay results reported in paper PMC10818931, “In Vitro Evaluation of Drug–Drug Interaction Potential of Epetraborole, a Novel Bacterial Leucyl-tRNA Synthetase Inhibitor” (Pharmaceuticals, 2024).

Key:
OATP1B1 = molecular target: T1, OATP1B1 (Homo sapiens, UniProt Q9Y6L6); test: Substrate potential in transporter-transfected MDCK cells; type: in vitro ADME
T1 construct: host or cells: MDCK
T1 sequence (Q9Y6L6 1-691): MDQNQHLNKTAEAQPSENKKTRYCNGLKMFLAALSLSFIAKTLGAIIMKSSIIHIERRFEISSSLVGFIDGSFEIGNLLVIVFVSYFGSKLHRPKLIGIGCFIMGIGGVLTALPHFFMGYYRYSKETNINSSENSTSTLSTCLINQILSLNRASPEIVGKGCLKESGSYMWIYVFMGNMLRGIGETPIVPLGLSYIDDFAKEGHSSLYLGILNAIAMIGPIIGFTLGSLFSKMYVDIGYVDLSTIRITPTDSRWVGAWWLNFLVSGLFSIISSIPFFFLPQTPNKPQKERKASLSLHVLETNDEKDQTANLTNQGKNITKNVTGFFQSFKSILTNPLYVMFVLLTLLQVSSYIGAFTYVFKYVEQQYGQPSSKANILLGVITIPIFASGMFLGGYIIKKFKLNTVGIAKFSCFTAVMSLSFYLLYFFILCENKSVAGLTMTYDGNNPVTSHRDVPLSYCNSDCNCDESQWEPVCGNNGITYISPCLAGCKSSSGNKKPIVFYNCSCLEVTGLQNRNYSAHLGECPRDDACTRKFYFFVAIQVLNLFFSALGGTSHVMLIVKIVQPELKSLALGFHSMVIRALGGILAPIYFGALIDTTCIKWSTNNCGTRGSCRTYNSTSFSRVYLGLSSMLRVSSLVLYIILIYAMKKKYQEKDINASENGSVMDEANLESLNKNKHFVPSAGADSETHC
Protocol: (§1) The uptake of a probe substrate of each transporter was conducted in parallel with the test article in separate wells of the same batch of vector control and transporter-transfected cells. Cells were incubated at 37 °C with 5% CO2 with 500 μL of dosing solution for different periods of time.

OATP1B3 = molecular target: T2, OATP1B3 (Homo sapiens, UniProt Q9NPD5); test: as above; type: in vitro ADME
T2 construct: host or cells: MDCK
T2 sequence (Q9NPD5 1-702): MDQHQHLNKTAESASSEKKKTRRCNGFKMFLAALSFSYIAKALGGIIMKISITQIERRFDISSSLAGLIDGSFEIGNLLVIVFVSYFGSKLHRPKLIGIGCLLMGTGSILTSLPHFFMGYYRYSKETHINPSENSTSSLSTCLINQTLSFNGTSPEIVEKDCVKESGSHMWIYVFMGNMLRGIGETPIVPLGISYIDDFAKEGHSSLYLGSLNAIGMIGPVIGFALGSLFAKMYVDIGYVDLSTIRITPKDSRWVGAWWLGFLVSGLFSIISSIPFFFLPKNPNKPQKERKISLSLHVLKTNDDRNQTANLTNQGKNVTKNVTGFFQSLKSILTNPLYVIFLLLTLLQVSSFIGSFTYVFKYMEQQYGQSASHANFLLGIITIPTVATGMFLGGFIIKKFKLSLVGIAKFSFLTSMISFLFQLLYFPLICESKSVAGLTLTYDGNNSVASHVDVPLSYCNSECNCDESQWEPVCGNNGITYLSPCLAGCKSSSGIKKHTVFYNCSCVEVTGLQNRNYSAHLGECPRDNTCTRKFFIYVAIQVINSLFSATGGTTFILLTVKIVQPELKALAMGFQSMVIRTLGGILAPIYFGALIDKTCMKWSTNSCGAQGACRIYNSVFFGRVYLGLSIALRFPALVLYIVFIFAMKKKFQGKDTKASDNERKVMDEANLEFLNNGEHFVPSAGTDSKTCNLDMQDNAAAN
Protocol: as §1

OAT3 = molecular target: T3, OAT3 (Homo sapiens, UniProt Q8TCC7); test: as above; type: in vitro ADME
T3 construct: host or cells: MDCK
T3 sequence (Q8TCC7 1-542): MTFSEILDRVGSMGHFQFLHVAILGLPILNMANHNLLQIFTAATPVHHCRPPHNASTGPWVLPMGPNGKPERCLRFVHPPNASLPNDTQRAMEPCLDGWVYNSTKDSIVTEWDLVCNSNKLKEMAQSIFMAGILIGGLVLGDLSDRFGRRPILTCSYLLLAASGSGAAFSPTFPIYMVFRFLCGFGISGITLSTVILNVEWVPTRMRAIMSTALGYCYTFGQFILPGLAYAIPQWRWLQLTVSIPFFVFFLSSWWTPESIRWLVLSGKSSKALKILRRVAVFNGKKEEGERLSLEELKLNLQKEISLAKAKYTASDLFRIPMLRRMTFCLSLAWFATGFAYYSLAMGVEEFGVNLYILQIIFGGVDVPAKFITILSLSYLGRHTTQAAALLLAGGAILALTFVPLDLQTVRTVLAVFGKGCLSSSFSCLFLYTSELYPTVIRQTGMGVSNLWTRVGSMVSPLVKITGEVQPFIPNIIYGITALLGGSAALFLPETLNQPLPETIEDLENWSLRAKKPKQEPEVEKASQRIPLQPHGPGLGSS
Protocol: as §1

MATE2K = molecular target: T4, MATE2K (Homo sapiens, UniProt Q86VL8); test: as above; type: in vitro ADME
T4 construct: host or cells: MDCK
T4 sequence (Q86VL8 1-566 isoform Q86VL8-3): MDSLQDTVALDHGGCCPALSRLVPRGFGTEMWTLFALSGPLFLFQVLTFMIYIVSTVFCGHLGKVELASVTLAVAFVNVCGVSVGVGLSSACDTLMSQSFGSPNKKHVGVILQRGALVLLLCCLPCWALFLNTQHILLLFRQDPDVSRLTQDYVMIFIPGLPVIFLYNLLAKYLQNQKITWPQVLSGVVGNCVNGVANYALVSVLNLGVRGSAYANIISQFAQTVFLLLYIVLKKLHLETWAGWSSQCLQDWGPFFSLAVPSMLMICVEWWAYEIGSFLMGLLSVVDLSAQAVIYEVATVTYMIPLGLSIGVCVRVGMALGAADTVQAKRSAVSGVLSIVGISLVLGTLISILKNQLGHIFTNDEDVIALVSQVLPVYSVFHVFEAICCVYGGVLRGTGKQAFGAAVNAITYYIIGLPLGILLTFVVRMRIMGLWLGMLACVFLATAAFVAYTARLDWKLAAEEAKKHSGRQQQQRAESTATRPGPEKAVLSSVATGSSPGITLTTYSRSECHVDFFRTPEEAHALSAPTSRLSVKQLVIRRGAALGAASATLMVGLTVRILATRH
Protocol: as §1

OCT2 = molecular target: T5, OCT2 (Homo sapiens, UniProt O15244); test: as above; type: in vitro ADME
T5 construct: host or cells: MDCK
T5 sequence (O15244 1-555): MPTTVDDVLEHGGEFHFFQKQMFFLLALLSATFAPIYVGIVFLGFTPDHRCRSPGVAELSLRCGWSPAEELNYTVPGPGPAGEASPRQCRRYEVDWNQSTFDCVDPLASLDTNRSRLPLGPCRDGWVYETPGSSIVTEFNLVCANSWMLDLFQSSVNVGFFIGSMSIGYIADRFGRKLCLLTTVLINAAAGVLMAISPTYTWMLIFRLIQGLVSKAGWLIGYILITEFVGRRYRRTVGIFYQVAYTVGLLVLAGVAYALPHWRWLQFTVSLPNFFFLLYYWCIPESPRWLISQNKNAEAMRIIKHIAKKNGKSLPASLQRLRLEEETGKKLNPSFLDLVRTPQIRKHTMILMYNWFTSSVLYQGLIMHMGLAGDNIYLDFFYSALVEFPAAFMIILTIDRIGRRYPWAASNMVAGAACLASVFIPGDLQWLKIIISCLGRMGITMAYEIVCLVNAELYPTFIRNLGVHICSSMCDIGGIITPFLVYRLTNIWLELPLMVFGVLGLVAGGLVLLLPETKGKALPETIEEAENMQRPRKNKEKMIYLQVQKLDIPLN
Protocol: as §1

[1] = tested on: HEK 293 or MDCK cell lines; test: Cytotoxicity in transporter inhibition studies; type: cell-based; settings: at the concentrations tested in transporter inhibition studies
P-gp = P-gp (Homo sapiens, UniProt P08183); test: Effect on P-gp mediated transport of 3H-digoxin in Caco-2; type: in vitro ADME; parameters: host or cells: Caco-2
Chain of P-gp (P08183 whole entry): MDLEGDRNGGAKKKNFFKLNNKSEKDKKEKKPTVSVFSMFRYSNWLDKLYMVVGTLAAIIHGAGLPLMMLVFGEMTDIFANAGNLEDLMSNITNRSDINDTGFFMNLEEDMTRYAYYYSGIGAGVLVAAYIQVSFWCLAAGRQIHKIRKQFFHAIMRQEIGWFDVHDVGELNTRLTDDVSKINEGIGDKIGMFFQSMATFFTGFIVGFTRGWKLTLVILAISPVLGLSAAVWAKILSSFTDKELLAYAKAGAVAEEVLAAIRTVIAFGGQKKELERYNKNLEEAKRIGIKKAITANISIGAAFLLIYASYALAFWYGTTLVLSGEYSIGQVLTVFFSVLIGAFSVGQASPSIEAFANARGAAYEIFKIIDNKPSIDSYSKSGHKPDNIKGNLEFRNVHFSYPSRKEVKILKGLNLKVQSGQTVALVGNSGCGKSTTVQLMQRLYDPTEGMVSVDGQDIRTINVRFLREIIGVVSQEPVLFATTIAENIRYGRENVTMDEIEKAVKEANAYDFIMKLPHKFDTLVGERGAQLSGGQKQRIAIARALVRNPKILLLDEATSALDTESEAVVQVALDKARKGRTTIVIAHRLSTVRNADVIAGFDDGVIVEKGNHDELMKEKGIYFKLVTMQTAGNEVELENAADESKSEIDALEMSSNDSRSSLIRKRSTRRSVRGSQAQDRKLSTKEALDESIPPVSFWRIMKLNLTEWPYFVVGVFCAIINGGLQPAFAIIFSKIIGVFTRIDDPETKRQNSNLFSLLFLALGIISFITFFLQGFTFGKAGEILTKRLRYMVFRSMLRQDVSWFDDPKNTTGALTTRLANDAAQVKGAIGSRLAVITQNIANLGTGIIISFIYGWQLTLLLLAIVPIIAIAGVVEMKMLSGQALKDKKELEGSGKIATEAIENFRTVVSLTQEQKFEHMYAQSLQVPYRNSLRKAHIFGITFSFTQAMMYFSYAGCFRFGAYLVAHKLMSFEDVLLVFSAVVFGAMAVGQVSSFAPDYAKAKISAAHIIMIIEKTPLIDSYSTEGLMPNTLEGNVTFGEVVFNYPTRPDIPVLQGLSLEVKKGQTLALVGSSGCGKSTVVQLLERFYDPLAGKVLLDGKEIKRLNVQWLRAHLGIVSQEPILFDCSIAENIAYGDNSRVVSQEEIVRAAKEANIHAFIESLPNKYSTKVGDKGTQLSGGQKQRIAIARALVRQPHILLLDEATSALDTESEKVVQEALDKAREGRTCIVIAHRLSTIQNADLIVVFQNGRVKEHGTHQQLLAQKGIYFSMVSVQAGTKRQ
Protocol: The concentrations of each radiolabeled compound in the resulting samples were determined using liquid scintillation counting (LSC).

**Q.** How did the Influx ratio (OATP1B1) turn out when NC[C@H]1OB(O)c2c(OCCCO)cccc21 [EBO, Epetraborole] was run?
**A.** < 2

**Q.** What about the “as a Substrate” value (OATP1B1) of the same molecule?
**A.** No

**Q.** What about the Influx ratio (OATP1B3) of the same molecule?
**A.** < 2

**Q.** And the “as a Substrate” value (OATP1B3)?
**A.** No

**Q.** What about the Influx ratio (OAT3) of the same molecule?
**A.** < 2

**Q.** And the “as a Substrate” value (OAT3)?
**A.** No

**Q.** And the Influx ratio (MATE2K)?
**A.** < 2

**Q.** What about the “as a Substrate” value (MATE2K) of the same molecule?
**A.** No

**Q.** And the “as a Substrate” value (OCT2)?
**A.** could potentially be a substrate and Yes

**Q.** What about the Influx ratio (OCT2; 5 µM) of the same molecule?
**A.** 3.44

**Q.** And the Cytotoxicity [1]?
**A.** Neither EBO nor M3 induced any cytotoxicity

**Q.** And the “Inhibition of P-gp-mediated transport of digoxin” value (P-gp)?
**A.** not a significant inhibitor

**Q.** And the “Efflux ratio of digoxin in the presence of test article” value (P-gp; EBO 100 µM)?
**A.** unchanged

**Q.** How did the Influx ratio (OATP1B1) turn out when NC[C@H]1OB(O)c2c(OCCC(=O)O)cccc21 [M3] was run?
**A.** < 2

**Q.** And the “as a Substrate” value (OATP1B1)?
**A.** No

**Q.** What about the Influx ratio (OATP1B3) of the same molecule?
**A.** < 2

**Q.** And the “as a Substrate” value (OATP1B3)?
**A.** No

**Q.** And the Influx ratio (OAT3)?
**A.** < 2

**Q.** And the “as a Substrate” value (OAT3)?
**A.** No

**Q.** What about the Influx ratio (MATE2K) of the same molecule?
**A.** < 2

**Q.** And the “as a Substrate” value (MATE2K)?
**A.** No

**Q.** And the “as a Substrate” value (OCT2)?
**A.** not a substrate and No

**Q.** And the Cytotoxicity [1]?
**A.** Neither EBO nor M3 induced any cytotoxicity
